Assay results taken from patent US6924269B2, “Enzyme inhibitors and methods therefor” (VDF Futureceuticals, Inc., priority 2002, dated 2005).

What was measured:
COX-1 = biological target: T1, COX-1 (Homo sapiens, UniProt P23219); assay: COX-1 enzyme inhibition study (human platelets, endogenous arachidonic acid, EIA of PGE2); type: biochemical
T1 construct: the source material was human platelets using endogenous arachidonic acid; endogenous in cells; host or cells: human platelets
Method: COX-1 enzyme inhibition study was performed using a protocol similar to protocols previously described (see e.g., Riendeau D, et al. in Brit. J. Pharmacol. (1997) 121:105-117; or Warner et al. in Proc. Natl. Acad.Sci. (1999) 96:7563-7568). Typically, the source material was human platelets using endogenous arachidonic acid (Vehicle 1% DMSO) at a preincubation time of 15 min at 37 Centigrades and an incubation time of 15 min at 37 Centigrades (Incubation buffer was HBSS buffer with 15mM HEPES pH7.4). Quantitative analysis was performed via EIA determination of PGE2.

COX-2 = biological target: T2, COX-2 (Homo sapiens, UniProt P35354); assay: COX-2 enzyme inhibition study (human recombinant, Sf9 cells, 0.3 microM arachidonic acid, PGE2 determination); type: biochemical
T2 construct: host or cells: Sf9 insect cells
T2 sequence (P35354 18-604): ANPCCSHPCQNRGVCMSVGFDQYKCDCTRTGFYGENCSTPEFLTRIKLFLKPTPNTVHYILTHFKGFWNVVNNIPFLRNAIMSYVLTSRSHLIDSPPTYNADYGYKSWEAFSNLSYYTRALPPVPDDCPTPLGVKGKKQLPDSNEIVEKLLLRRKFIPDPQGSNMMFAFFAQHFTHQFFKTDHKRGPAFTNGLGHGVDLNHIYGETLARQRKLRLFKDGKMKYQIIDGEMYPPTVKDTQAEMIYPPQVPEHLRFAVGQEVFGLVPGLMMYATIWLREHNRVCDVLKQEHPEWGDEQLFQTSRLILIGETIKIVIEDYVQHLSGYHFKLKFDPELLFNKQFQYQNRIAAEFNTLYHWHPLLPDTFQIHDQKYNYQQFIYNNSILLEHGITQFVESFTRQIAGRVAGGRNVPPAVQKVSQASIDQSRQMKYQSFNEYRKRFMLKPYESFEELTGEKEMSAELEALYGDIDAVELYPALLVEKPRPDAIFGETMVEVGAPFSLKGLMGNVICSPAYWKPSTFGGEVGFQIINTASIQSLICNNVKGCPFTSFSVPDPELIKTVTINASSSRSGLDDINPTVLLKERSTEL
Method: COX-2 enzyme inhibition study was performed using a protocol similar to protocols previously described (see e.g., Riendeau D, et al. in Can. J. Physiol. Pharmacol. (1997) 75:1088-11095; or Warner et al. in Proc. Natl. Acad.Sci. (1999) 96:7563-7568). Typically, the source material was human recombinant Sf9 cells using 0.3 microM arachidonic acid (Vehicle 1% DMSO) at a preincubation time of 15 min at 37 Centigrades and an incubation time of 15 min at 37 Centigrades (Incubation buffer was 100 mM Tris 1 mM Glutathione, 1 microM hematin, and 0.5mM phenol, pH7.7). Quantitative analysis was performed via ETA determination of PGE2.

T1 sequence (P23219 24-599): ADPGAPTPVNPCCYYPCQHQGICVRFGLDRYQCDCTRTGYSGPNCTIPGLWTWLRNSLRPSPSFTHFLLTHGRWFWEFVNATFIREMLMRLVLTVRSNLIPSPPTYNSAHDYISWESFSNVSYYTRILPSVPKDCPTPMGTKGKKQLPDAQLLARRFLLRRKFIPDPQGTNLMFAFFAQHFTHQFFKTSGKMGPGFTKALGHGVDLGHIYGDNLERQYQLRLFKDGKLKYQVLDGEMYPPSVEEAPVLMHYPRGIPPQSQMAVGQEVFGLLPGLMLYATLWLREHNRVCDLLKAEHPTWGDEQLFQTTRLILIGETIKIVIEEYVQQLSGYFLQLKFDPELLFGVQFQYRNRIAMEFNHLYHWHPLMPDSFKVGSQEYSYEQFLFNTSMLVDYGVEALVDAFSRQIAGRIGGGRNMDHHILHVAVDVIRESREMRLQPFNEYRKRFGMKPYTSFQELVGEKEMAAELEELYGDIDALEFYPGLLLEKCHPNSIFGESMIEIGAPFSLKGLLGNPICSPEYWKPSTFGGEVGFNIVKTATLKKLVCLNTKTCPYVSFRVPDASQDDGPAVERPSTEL

| Substance | COX-1 IC50 (COX-1) [µg/mL] | COX-1 (% Inhib.) (COX-1; concentration 100 μg/ml) [%] | COX-1 (% Inhib.) (COX-1; concentration 1000 μg/ml) [%] | COX-1 (% Inhib.) (COX-1; concentration 10 mg/ml) [%] | Selectivity COX-1 to COX-2 (COX-1; ratio of IC50 values, COX-1 over COX-2) | COX-2 IC50 (COX-2) [µg/mL] | COX-2 (% Inhib.) (COX-2; concentration 100 μg/ml) [%] | COX-2 (% Inhib.) (COX-2; concentration 1000 μg/ml) [%] | COX-2 (% Inhib.) (COX-2; concentration 10 mg/ml) [%] | Selectivity COX-2 to COX-1 (COX-2; ratio of IC50 values, COX-2 over COX-1) |
| --- | --- | --- | --- | --- | --- | --- | --- | --- | --- | --- |
| Calcium Fructoborate | 222 | 29 | 85 | 95 | least 45-fold | >10000 | 8 | 12 | 10 |  |
| Potassium Boroascorbate | 8570 | −5 | −2 | 69 |  | <100 | 77 | 73 | 71 | least 85-fold |
